Reference: patent US20240024325A1, “Methods of Managing Cocaine or Other Drug Addictions” (Emory University, priority 2020, published 2024)
Entries after “also recorded” stand apart in the source; their conditions may differ.

Experiments:
Drosophila melanogaster = experiment: Cocaine-induced startle response and seizure activity in the Drosophila model; assay type: in vivo
Protocol: The percent time out of 45 seconds that each fly spent moving following a 42 cm drop was measured. Male flies exposed to cocaine spent less time moving than flies exposed to untreated food (p=2.13×10^−12). […] Error bars represent standard error.
Drosophila provides an advantageous model system for studies on cocaine consumption. […] In addition, flies develop sensitization to repeated intermittent exposure to cocaine. Startle behavior and the prevalence of seizure activity was measured in male and female flies. Measurements were taken following acute consumption of solid food, solid food supplemented with cocaine, or solid food supplemented with cocaine and ibrutinib. Male flies exposed to cocaine spent less time moving after being subjected to a mechanical startle (FIG. 3A). This is likely due to the occurrence of cocaine-induced seizures, which were scored as stationary periods.

mice = conditions: cited from earlier work

| Compound | prevalence of cocaine-induced seizures during startle assay, female flies (Drosophila melanogaster; female flies, cocaine and ibrutinib vs cocaine only, did not reach statistical significance) | percent time spent moving after mechanical startle (startle response) (Drosophila melanogaster; male and female flies, food with cocaine and ibrutinib vs cocaine only, 45 seconds after 42 cm drop, FIG. 3A) | prevalence of cocaine-induced seizures during startle assay, male flies (Drosophila melanogaster; male flies, cocaine and ibrutinib vs cocaine only, FIG. 3B) | binge drinking (mice) |
| --- | --- | --- | --- | --- |
| C=CC(=O)N1CCC[C@@H](n2nc(-c3ccc(Oc4ccccc4)cc3)c3c(N)ncnc32)C1 [ibrutinib, (R)-1-(3-(4-amino-3-(4-phenoxyphenyl)-1H-pyrazolo[3,4-d]pyrimidin-1-yl)piperidin-1-yl)prop-2-en-1-one] | Fewer cocaine-induced seizures | increase in the percent of time spent moving; also recorded: spent more time moving than flies that only consumed cocaine | significant decrease in the prevalence of seizures |  |
| CC1=C(O)C(=O)[C@@H]2O[C@@H]2C1=O [terreic acid] |  |  |  | reduced binge drinking in mice |
